Test: Incorporation of fat-soluble drug into white turbid aggregate containing PMEA
Conditions: diluted in PBS, 37° C., fluorescence microscopy after 3 days
Protocol: The dialysis was carried out for 3 days while changing the purified water until the coloring of the external solvent by the elution of DOX was sufficiently removed.
In addition, the white turbid aggregate was diluted in PBS, allowed to stand in an incubator at 37° C., and then the doxorubicin content was confirmed by fluorescence microscopy (after 3 days).

## COc1cccc2c1C(=O)c1c(O)c3c(c(O)c1C2=O)C[C@@](O)(C(=O)CO)C[C@@H]3O[C@H]1C[C@H](N)[C@H](O)[C@H](C)O1 [doxorubicin]
  doxorubicin content of the aggregate after storage: confirmed
